Experimental data as given in the supplement of paper PMC8253809.

Key:
HGGX39 [1] = paediatric high-grade glioma line; test: area under dose-response curve of % growth inhibition (log2 RLU vs DMSO / staurosporine), 1e-11 to 1e-4 M (% x log10 M); higher = more growth inhibition
Procedure, shortened: (§1)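 Area under the curve was derived with the trapezoid rule from a fitted log-logistic curve, switching to a smoothing spline if the sigmoid fit failed. It rested on per-plate % activity between solvent and positive controls, calculated from log2-transformed CellTiter-Glo luminescence after 7 days of exposure (3 days for iAstro) at 37 °C, 5% CO2. Patient-derived pHGG/DIPG lines and astrocytes on 1% Geltrex-coated 384-well plates received a 10-point threefold dilution series, mean top concentration 35 μM, in triplicate.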

HGGX6 [2] = H3.3 G34R paediatric high-grade glioma line; test: as above
Procedure, shortened: as §1

DIPGX29 [3] = H3.3 K27M diffuse intrinsic pontine glioma line; test: as above
Procedure, shortened: as §1

DIPGX37 [4] = H3.3 K27M diffuse intrinsic pontine glioma line; test: as above
Procedure, shortened: as §1

HGGX39 [5] = test: maximal growth inhibition (yFin) relative to DMSO / staurosporine; higher = more efficacious
Procedure, shortened: (§2)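 Compounds were delivered by pin tool as a 10-point threefold dilution series with a mean top concentration of 35 μM, in triplicate, to patient-derived pHGG/DIPG cell lines and astrocyte controls growing on 1% Geltrex-coated 384-well plates. Incubation lasted 7 days, or 3 days for iAstro, at 37 °C with 5% CO2. EC50 and maximal response (yFin) come from the three- or four-parameter log-logistic fit with the lowest AICc, applied to pooled, log2-transformed CellTiter-Glo luminescence normalised per plate to % activity between solvent (negative) and positive control wells.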

HGGX6 [6] = test: as above
Procedure, shortened: as §2

DIPGX29 [7] = test: as above
Procedure, shortened: as §2

DIPGX37 [8] = test: as above
Procedure, shortened: as §2

HGGX39 [9] = test: EC50 (inflection of fitted growth-inhibition curve) (log10 M)
Procedure, shortened: as §2

HGGX6 [10] = test: as above
Procedure, shortened: as §2

DIPGX29 [11] = test: as above
Procedure, shortened: as §2

DIPGX37 [12] = test: as above
Procedure, shortened: as §2

| SMILES | area under dose-response curve (HGGX39 [1]) | area under dose-response curve (HGGX6 [2]) | area under dose-response curve (DIPGX29 [3]) | area under dose-response curve (DIPGX37 [4]) | maximal growth inhibition (HGGX39 [5]) [%] | maximal growth inhibition (HGGX6 [6]) [%] | maximal growth inhibition (DIPGX29 [7]) [%] | maximal growth inhibition (DIPGX37 [8]) [%] | EC50 (log10 M) (HGGX39 [9]) | EC50 (log10 M) (HGGX6 [10]) | EC50 (log10 M) (DIPGX29 [11]) | EC50 (log10 M) (DIPGX37 [12]) |
| --- | --- | --- | --- | --- | --- | --- | --- | --- | --- | --- | --- | --- |
| COc1ccccc1-c1cc(Nc2cccc(CS(N)(=O)=O)c2)ncn1 | 40.5 | 54.4 | 58.4 | 39.8 | 48.3 | 65.7 | 71.9 | 59.7 | -4.84 | -4.83 | -4.82 | -4.68 |
| Cc1nc(Nc2n[nH]c3c2CN(C(=O)N[C@H](CN(C)C)c2ccccc2)C3(C)C)c2sccc2n1 | 120 | 174 | 150 | 177 | 79.6 | 75.5 | 77.2 | 80.1 | -5.22 | -5.66 | -5.45 | -5.56 |
| Cc1nn(C)c(COc2ccc(N3CCN(S(=O)(=O)N(C)C)CC3)cc2)c1-c1cccc2c(CCCOc3cccc4ccccc34)c(C(=O)O)n(CCN3CCOCC3)c12 | 0 | 4.05 | 81.7 | 79.7 | – | – | 92.1 | 110 | – | – | -4.9 | -4.73 |
| O=C1NCCc2[nH]c(-c3ccncc3)cc21 | 98.2 | 124 | 110 | 111 | 71.2 | 65.9 | 67.8 | 58.9 | -5.41 | -5.81 | -5.62 | -5.9 |
| COc1cc2c(cc1O)CC[C@@H]1[C@@H]2CC[C@]2(C)[C@@H](O)CC[C@@H]12 [2-METHOXYESTRADIOL] | 47.3 | 38.9 | 40.9 | 48.8 | 53 | 23.6 | 22.8 | 36.4 | -4.89 | -5.65 | -5.23 | -4.96 |
| Nc1nccc2c1ncn2[C@@H]1C=C(CO)[C@@H](O)[C@H]1O [3-DEAZANEPLANOCIN] | 33.5 | 36.5 | 76 | 16.8 | – | – | 21.5 | – | – | – | -7.53 | – |
| CC(C)(C)C(=O)OCOP(=O)(COCCn1cnc2c(N)ncnc21)OCOC(=O)C(C)(C)C [ADEFOVIR DIPIVOXIL] | 36.5 | 22.2 | 25.6 | 53.7 | 21.4 | 20.9 | – | 34.3 | -5.71 | -5.06 | – | -5.54 |
| CCCSc1ccc2[nH]c(NC(=O)OC)nc2c1 [ALBENDAZOLE] | 66 | 28.7 | 33.5 | 60.2 | 32 | 23 | – | 28.7 | -6.13 | -5.18 | – | -6.1 |
| CC(C)c1c(C(=O)Nc2ccccc2)c(-c2ccccc2)c(-c2ccc(F)cc2)n1CC[C@@H](O)C[C@@H](O)CC(=O)O [ATORVASTATIN] | 108 | 55.5 | 48 | 66.2 | 84.1 | 55.1 | – | 22 | -5.24 | -4.88 | – | -6.26 |
| CNC(=O)c1ccccc1Sc1ccc2c(/C=C/c3ccccn3)n[nH]c2c1 [AXITINIB] | 46.3 | 67.6 | 45.4 | 55.3 | 23.3 | 28.6 | 21.1 | – | -5.96 | -6.35 | -6.07 | – |
| Clc1ccccc1C(c1ccccc1)(c1ccccc1)n1ccnc1 [CLOTRIMAZOLE] | 27.8 | 31.5 | 27.2 | 13.3 | 23 | 26.3 | 29.5 | – | -5.21 | -5.22 | -4.92 | – |
| Cc1nc2c([nH]1)-c1ccccc1N(C(=O)c1ccc(NC(=O)c3ccccc3-c3ccccc3)cc1)CC2 [CONIVAPTAN] | 60.9 | 6.44 | 29.9 | 35.9 | 83.9 | – | 26.5 | 36 | -4.73 | – | -4.73 | -4.59 |
| O=c1[nH]c(=O)n([C@H]2C[C@H](O)[C@@H](CO)O2)cc1F [FLOXURIDINE] | 26.8 | 23.5 | 46.2 | 18.8 | – | – | 30 | – | – | – | -5.39 | – |
| Nc1ccn([C@@H]2O[C@H](CO)[C@@H](O)C2(F)F)c(=O)n1 [GEMCITABINE] | 68.9 | 54.2 | 81.9 | 83.9 | – | – | 20.3 | – | – | – | -8.08 | – |
| CCNc1nc(Nc2cc(F)c(C(=O)N3CCOCC3)cc2OC)ncc1C(F)(F)F [GNE-7915] | 29.7 | 21.1 | 23.5 | 15.9 | 38.7 | – | 28.7 | – | -4.79 | – | -4.82 | – |
| CC[C@H](C)n1cc(C)c2c(C(=O)NCc3c(C)cc(C)[nH]c3=O)cc(-c3ccc(N4CCNCC4)nc3)cc21 [GSK126] | 13.1 | 61.2 | 66.1 | 74.3 | – | 74.4 | 76.4 | 76.7 | – | -4.83 | -4.87 | -4.88 |
| Cc1cc(C)c(S(=O)(=O)N(Cc2ccc(-c3cccc(S(C)(=O)=O)c3)cc2)Cc2ccc(C(F)(F)F)o2)c(C)c1 [GSK-2033] | 0 | 30.1 | 89 | 22.5 | – | – | 87.3 | – | – | – | -5.05 | – |
| COc1cc2c(cc1-c1c(C)noc1C)ncc1[nH]c(=O)n([C@H](C)c3ccccn3)c12 [I-BET151] | 47.5 | 37.1 | 31.6 | 43.5 | 45 | – | 21.8 | 25.8 | -5.03 | – | -5.05 | -5.65 |
